According to paper PMC5298231, “The Malaria Parasite's Lactate Transporter PfFNT Is the Target of Antiplasmodial Compounds Identified in Whole Cell Phenotypic Screens” (PLoS Pathogens, 2017):
Where two headings read alike, the source gives them in different places.

Tested on: erythrocytes infected with 3D7 trophozoites
Type: cell-based, Plasmodium falciparum
Conditions: 6 μM

COc1ccc2c(c1)OC(O)(C(F)(F)C(F)(F)F)CC2=O (stereo not drawn) [MMV007839]
ESFG log2 ratio (+MMV007839/-MMV007839) (Av 1hr): 0.4045
EVGG log2 ratio (+MMV007839/-MMV007839) (Av 1hr): 0.01776
Erythrose 4-phosphate log2 ratio (+MMV007839/-MMV007839) (Av 1hr): -0.3514
FAD log2 ratio (+MMV007839/-MMV007839) (Av 1hr): -0.08791
FMN log2 ratio (+MMV007839/-MMV007839) (Av 1hr): -0.2425
Farnesyl diphosphate log2 ratio (+MMV007839/-MMV007839) (Av 1hr): -0.0002912
Folate log2 ratio (+MMV007839/-MMV007839) (Av 1hr): -0.2316
Fructose-1-6-bisphosphate log2 ratio (+MMV007839/-MMV007839) (Av 1hr): 1.122
Fructose-6-Phosphate log2 ratio (+MMV007839/-MMV007839) (Av 1hr): 0.08818
GDP log2 ratio (+MMV007839/-MMV007839) (Av 1hr): -0.6846
GDP-mannose log2 ratio (+MMV007839/-MMV007839) (Av 1hr): 0.01571
GMP log2 ratio (+MMV007839/-MMV007839) (Av 1hr): -1.125
GTP log2 ratio (+MMV007839/-MMV007839) (Av 1hr): -0.5732
Geranylgeranyl pyrophosphate log2 ratio (+MMV007839/-MMV007839) (Av 1hr): -0.5786
Gluconate log2 ratio (+MMV007839/-MMV007839) (Av 1hr): 0.1947
Glucose-6-Phosphate log2 ratio (+MMV007839/-MMV007839) (Av 1hr): -0.1863
Glutamate log2 ratio (+MMV007839/-MMV007839) (Av 1hr): 0.1005
Glutamine log2 ratio (+MMV007839/-MMV007839) (Av 1hr): 0.7703
Glutathione disulfide log2 ratio (+MMV007839/-MMV007839) (Av 1hr): 0.1943
Glutathione log2 ratio (+MMV007839/-MMV007839) (Av 1hr): -0.1919
Glyceraldehyde 3-phosphate log2 ratio (+MMV007839/-MMV007839) (Av 1hr): -0.7606
Glycerone phosphate log2 ratio (+MMV007839/-MMV007839) (Av 1hr): 0.5926
HLD log2 ratio (+MMV007839/-MMV007839) (Av 1hr): -0.3486
HVDD log2 ratio (+MMV007839/-MMV007839) (Av 1hr): -0.6691
Histidine log2 ratio (+MMV007839/-MMV007839) (Av 1hr): 0.5758
Homoserine log2 ratio (+MMV007839/-MMV007839) (Av 1hr): 0.3097
Hydroxy-L-proline log2 ratio (+MMV007839/-MMV007839) (Av 1hr): 0.2443
Hypoxanthine log2 ratio (+MMV007839/-MMV007839) (Av 1hr): 0.3704
IDP log2 ratio (+MMV007839/-MMV007839) (Av 1hr): -0.1758
IMP log2 ratio (+MMV007839/-MMV007839) (Av 1hr): -0.02277
Inosine log2 ratio (+MMV007839/-MMV007839) (Av 1hr): 0.5137
Isoleucine log2 ratio (+MMV007839/-MMV007839) (Av 1hr): 0.3056
LD log2 ratio (+MMV007839/-MMV007839) (Av 1hr): 0.3825
Lactate log2 ratio (+MMV007839/-MMV007839) (Av 1hr): 2.358
Leucine log2 ratio (+MMV007839/-MMV007839) (Av 1hr): 0.1553
Lysine log2 ratio (+MMV007839/-MMV007839) (Av 1hr): 1.68
Malate log2 ratio (+MMV007839/-MMV007839) (Av 1hr): 0.1358
Mannitol log2 ratio (+MMV007839/-MMV007839) (Av 1hr): 0.0108
Methionine log2 ratio (+MMV007839/-MMV007839) (Av 1hr): 0.2615
Myristic acid log2 ratio (+MMV007839/-MMV007839) (Av 1hr): 0.2261
N-Acetyl-glutamate log2 ratio (+MMV007839/-MMV007839) (Av 1hr): -0.007377
N-Carbamoyl-L-aspartate log2 ratio (+MMV007839/-MMV007839) (Av 1hr): -1.378
NAD+ log2 ratio (+MMV007839/-MMV007839) (Av 1hr): 0.03204
NADH log2 ratio (+MMV007839/-MMV007839) (Av 1hr): -1.36
NADP+ log2 ratio (+MMV007839/-MMV007839) (Av 1hr): -0.2617
Octoluse Bisphosphate log2 ratio (+MMV007839/-MMV007839) (Av 1hr): 1.912
Ornithine log2 ratio (+MMV007839/-MMV007839) (Av 1hr): 0.2172
Orotate log2 ratio (+MMV007839/-MMV007839) (Av 1hr): -1.216
Orotidine 5-phosphate log2 ratio (+MMV007839/-MMV007839) (Av 1hr): -1.5
Orotidine log2 ratio (+MMV007839/-MMV007839) (Av 1hr): -0.4366
PAEF log2 ratio (+MMV007839/-MMV007839) (Av 1hr): -0.4364
PAVH log2 ratio (+MMV007839/-MMV007839) (Av 1hr): -1.011
PD log2 ratio (+MMV007839/-MMV007839) (Av 1hr): 0.2765
PDAV log2 ratio (+MMV007839/-MMV007839) (Av 1hr): 0.344
PE log2 ratio (+MMV007839/-MMV007839) (Av 1hr): 1.21
PEE log2 ratio (+MMV007839/-MMV007839) (Av 1hr): 0.2418
PHF log2 ratio (+MMV007839/-MMV007839) (Av 1hr): 1.069
PPVQ log2 ratio (+MMV007839/-MMV007839) (Av 1hr): 0.02129
PVNF log2 ratio (+MMV007839/-MMV007839) (Av 1hr): -0.3384
PVQ log2 ratio (+MMV007839/-MMV007839) (Av 1hr): 0.8749
PVQA log2 ratio (+MMV007839/-MMV007839) (Av 1hr): -0.7385
Pantothenate log2 ratio (+MMV007839/-MMV007839) (Av 1hr): -0.01312
Phenylalanine log2 ratio (+MMV007839/-MMV007839) (Av 1hr): 0.1979
Phosphoenolpyruvate log2 ratio (+MMV007839/-MMV007839) (Av 1hr): 0.299
Pipecolate log2 ratio (+MMV007839/-MMV007839) (Av 1hr): 0.4539
Proline log2 ratio (+MMV007839/-MMV007839) (Av 1hr): 0.1646
Pyridoxine log2 ratio (+MMV007839/-MMV007839) (Av 1hr): 0.1656
Pyruvate log2 ratio (+MMV007839/-MMV007839) (Av 1hr): 1.42
Ribose-5-phosphate log2 ratio (+MMV007839/-MMV007839) (Av 1hr): 0.9115
S-Adenosyl-L-homocysteine log2 ratio (+MMV007839/-MMV007839) (Av 1hr): -0.1282
SDGLA log2 ratio (+MMV007839/-MMV007839) (Av 1hr): -0.148
SFGD log2 ratio (+MMV007839/-MMV007839) (Av 1hr): -0.0354
Sedoheptoluse bisphosphate log2 ratio (+MMV007839/-MMV007839) (Av 1hr): 0.6095
Sedoheptulose-1/7-phosphate log2 ratio (+MMV007839/-MMV007839) (Av 1hr): 0.1578
Serine log2 ratio (+MMV007839/-MMV007839) (Av 1hr): 0.004434
Succinate log2 ratio (+MMV007839/-MMV007839) (Av 1hr): 0.4975
Succinate semialdehyde log2 ratio (+MMV007839/-MMV007839) (Av 1hr): -0.3802
TNVK log2 ratio (+MMV007839/-MMV007839) (Av 1hr): -0.9736
Threonine log2 ratio (+MMV007839/-MMV007839) (Av 1hr): 0.4202
Tryptophan log2 ratio (+MMV007839/-MMV007839) (Av 1hr): 0.09509
Tyrosine log2 ratio (+MMV007839/-MMV007839) (Av 1hr): 0.1697
UDP log2 ratio (+MMV007839/-MMV007839) (Av 1hr): -0.1565
UDP-N-acetyl-D-glucosamine log2 ratio (+MMV007839/-MMV007839) (Av 1hr): 0.0845
UDP-glucose log2 ratio (+MMV007839/-MMV007839) (Av 1hr): -0.08513
UMP log2 ratio (+MMV007839/-MMV007839) (Av 1hr): -0.3602
Uracil log2 ratio (+MMV007839/-MMV007839) (Av 1hr): -0.4869
Uric Acid log2 ratio (+MMV007839/-MMV007839) (Av 1hr): 0.02649
VD log2 ratio (+MMV007839/-MMV007839) (Av 1hr): 1.818
Valine log2 ratio (+MMV007839/-MMV007839) (Av 1hr): 0.1364
Xanthine log2 ratio (+MMV007839/-MMV007839) (Av 1hr): 0.3309
dADP log2 ratio (+MMV007839/-MMV007839) (Av 1hr): -0.3244
dATP log2 ratio (+MMV007839/-MMV007839) (Av 1hr): 0.05147
dCDP log2 ratio (+MMV007839/-MMV007839) (Av 1hr): 0.3024
dGMP log2 ratio (+MMV007839/-MMV007839) (Av 1hr): 0.08489
dTMP log2 ratio (+MMV007839/-MMV007839) (Av 1hr): -0.02247
dTTP log2 ratio (+MMV007839/-MMV007839) (Av 1hr): 0.2046
dUMP log2 ratio (+MMV007839/-MMV007839) (Av 1hr): 1.26
myo-Inositol log2 ratio (+MMV007839/-MMV007839) (Av 1hr): -0.07002
sn-Glycerol 3-phosphate log2 ratio (+MMV007839/-MMV007839) (Av 1hr): 1.379
sn-glycero-3-Phospho-1-inositol log2 ratio (+MMV007839/-MMV007839) (Av 1hr): -0.128
Hexose-phosphate log2 ratio (+MMV007839/-MMV007839) (Av 1hr, medRt 15.0954): -0.2585
6-Phospho-D-gluconate log2 ratio (+MMV007839/-MMV007839) (Av 1hr, medRt 16.8944): -0.386
Hexose-phosphate log2 ratio (+MMV007839/-MMV007839) (Av 1hr, medRt 17.0788): -1.607
6-Phospho-D-gluconate log2 ratio (+MMV007839/-MMV007839) (Av 1hr, medRt 17.4636): -0.04985
1-3 (2-3)-diphopshateglycerate log2 ratio (+MMV007839/-MMV007839) (Av 3hr): 0.8355
